IC50 data for 21 compounds are collected here from patent publication US9242970B2 (ACTELION PHARMACEUTICALS LTD., priority 2010, dated 2016).

Read-outs that look alike come from different tables or passages of the source.

One assay addresses human orexin-2 receptor (Homo sapiens (Human), UniProt O43614). In words: In vitro assay: intracellular calcium measurements (FLIPR), antagonistic activity. Format: cell-based. (In general: A change in cytosolic calcium serves as a functional read-out for many receptors and channels.)
The target of another assay is human orexin-1 receptor (Homo sapiens (Human), UniProt O43613). Described as above. The following applies: CHO cells, 3 nM orexin-A, compound incubation 120 min; marked values are geometric means of n = 2-6; read-out: IC50 OX1. Format: cell-based.
Where [1] appears, read: CHO cells, 3 nM orexin-A, compound incubation 120 min, marked values are geometric means of n = 2-6, read-out: IC50 OX2.

human orexin-2 receptor, sequence (O43614 whole entry): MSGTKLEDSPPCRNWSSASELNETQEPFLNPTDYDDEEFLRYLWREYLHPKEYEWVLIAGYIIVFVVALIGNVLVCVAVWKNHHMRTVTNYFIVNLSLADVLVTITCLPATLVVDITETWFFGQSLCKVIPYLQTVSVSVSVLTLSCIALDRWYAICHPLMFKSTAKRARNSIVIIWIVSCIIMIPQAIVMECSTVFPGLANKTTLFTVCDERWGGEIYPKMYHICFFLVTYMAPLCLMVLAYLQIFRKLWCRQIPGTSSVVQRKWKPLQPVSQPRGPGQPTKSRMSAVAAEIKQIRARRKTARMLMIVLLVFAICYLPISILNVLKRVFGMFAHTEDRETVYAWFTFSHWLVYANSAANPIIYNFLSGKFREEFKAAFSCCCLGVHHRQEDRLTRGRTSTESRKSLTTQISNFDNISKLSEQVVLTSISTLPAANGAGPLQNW
human orexin-1 receptor, sequence (O43613 whole entry): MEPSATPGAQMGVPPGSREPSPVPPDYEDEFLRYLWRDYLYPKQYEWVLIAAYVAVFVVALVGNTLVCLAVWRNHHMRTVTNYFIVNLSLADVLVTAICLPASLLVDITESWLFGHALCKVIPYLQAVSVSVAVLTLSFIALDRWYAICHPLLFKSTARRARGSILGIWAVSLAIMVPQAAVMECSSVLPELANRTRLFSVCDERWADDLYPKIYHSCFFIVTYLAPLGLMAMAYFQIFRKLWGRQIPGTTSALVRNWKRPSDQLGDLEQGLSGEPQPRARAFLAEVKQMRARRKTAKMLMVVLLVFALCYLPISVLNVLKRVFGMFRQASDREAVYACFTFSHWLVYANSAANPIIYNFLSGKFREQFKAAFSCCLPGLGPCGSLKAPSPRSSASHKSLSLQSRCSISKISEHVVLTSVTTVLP

What is called IC50 is the concentration that inhibits the measured activity by half. Turning to `COc1cccc(F)c1[C@@H]1C[C@@H](Cl)C(=O)N1Cc1ccc(OC(F)(F)F)cc1` (racemic) [Example 324, rac-(3R*,5S*)-3-chloro-5-(2-fluoro-6-methoxyphenyl)-1-(4-(trifluoromethoxy)benzyl)pyrrolidin-2-one], the results for the IC50 at human orexin-2 receptor (setting [1]) and at human orexin-1 receptor were 1210 nM and 968 nM, respectively.

Take `COc1cccc(C)c1[C@@H]1C[C@H](Cl)C(=O)N1Cc1ccc(OC(F)(F)F)cc1` (racemic) [Example 326, rac-(3S*,5S*)-3-chloro-5-(2-methoxy-6-methylphenyl)-1-(4-(trifluoromethoxy)benzyl)pyrrolidin-2-one]: the figures for the half-inhibitory concentration (IC50) at human orexin-2 receptor (setting [1]) and on human orexin-1 receptor were 126 nM and 1520 nM, respectively.

Take `CCOc1c(F)cccc1[C@@H]1C[C@H](F)C(=O)N1Cc1ccc(OC(F)(F)F)cc1` (racemic) [Example 331, rac-(3S*,5S*)-5-(2-ethoxy-3-fluorophenyl)-3-fluoro-1-(4-(trifluoromethoxy)benzyl)pyrrolidin-2-one]: the half-maximal inhibitory concentration (IC50) at human orexin-2 receptor (setting [1]) is 434 nM; on human orexin-1 receptor, 1150 nM.

As to `COc1ccc(F)c(OC)c1[C@@H]1C[C@H](F)C(=O)N1Cc1ccc(OC(F)(F)F)cc1` (racemic) [Example 332, rac-(3S*,5S*)-3-fluoro-5-(3-fluoro-2,6-dimethoxyphenyl)-1-(4-(trifluoromethoxy)benzyl)pyrrolidin-2-one], the results for the IC50 at human orexin-2 receptor (setting [1]) and on human orexin-1 receptor were 296 nM and 1020 nM, respectively.

Turning to `CCOc1cccc(F)c1[C@@H]1C[C@@H](Cl)C(=O)N1Cc1ccc(OC(F)(F)F)cc1` (racemic) [Example 333, rac-(3R*,5S*)-3-chloro-5-(2-ethoxy-6-fluorophenyl)-1-(4-(trifluoromethoxy)benzyl)pyrrolidin-2-one], the 50% inhibitory concentration (IC50) at human orexin-2 receptor (setting [1]) came out at 184 nM; at human orexin-1 receptor, 965 nM.

`CCOc1cccc(F)c1[C@@H]1C[C@@H](O)C(=O)N1Cc1ccc(OC(F)(F)F)cc1` (racemic) [Example 334, rac-(3R*,5S*)-5-(2-ethoxy-6-fluorophenyl)-3-hydroxy-1-(4-(trifluoromethoxy)benzyl)pyrrolidin-2-one]: the values for the IC50 on human orexin-2 receptor (setting [1]) and on human orexin-1 receptor were 33 nM and 2120 nM, respectively.

For `CCOc1cc(F)ccc1[C@@H]1C[C@@H](O)C(=O)N1Cc1ccc(OC(F)(F)F)cc1` (racemic) [Example 335, rac-(3R*,5S*)-5-(2-ethoxy-4-fluorophenyl)-3-hydroxy-1-(4-(trifluoromethoxy)benzyl)pyrrolidin-2-one], the 50% inhibitory concentration (IC50) at human orexin-2 receptor (setting [1]) was found to be 1360 nM; at human orexin-1 receptor, 5350 nM.

As to `CCOc1ccc(F)c(F)c1[C@@H]1C[C@H](F)C(=O)N1Cc1ccc(OC(F)(F)F)cc1` (racemic) [Example 340, rac-(3S*,5S*)-5-(6-ethoxy-2,3-difluorophenyl)-3-fluoro-1-(4-(trifluoromethoxy)benzyl)pyrrolidin-2-one], the figures for the IC50 at human orexin-2 receptor (setting [1]) and at human orexin-1 receptor were 17 nM and 981 nM, respectively.

As to `CCOc1cc(F)ccc1[C@@H]1C[C@@H](Cl)C(=O)N1Cc1ccc(OC(F)(F)F)cc1` (racemic) [Example 341], the IC50 worked out at 1630 nM on human orexin-2 receptor (setting [1]) and 3340 nM at human orexin-1 receptor.

As to `CCOc1cccc(F)c1[C@@H]1C[C@H](F)C(=O)N1Cc1ccc(OC(F)(F)F)cc1` (racemic) [Example 342, rac-(3S*,5S*)-5-(2-ethoxy-6-fluorophenyl)-3-fluoro-1-(4-(trifluoromethoxy)benzyl)pyrrolidin-2-one], the figures for the 50% inhibitory concentration (IC50) at human orexin-2 receptor (setting [1]) and on human orexin-1 receptor were 8 nM and 1110 nM, respectively.

Regarding `CCOc1cccc(F)c1[C@@H]1C[C@H](Cl)C(=O)N1Cc1ccc(OC(F)(F)F)cc1` (racemic) [Example 343, rac-(3S*,5S*)-3-chloro-5-(2-ethoxy-6-fluorophenyl)-1-(4-(trifluoromethoxy)benzyl)pyrrolidin-2-one], the 50% inhibitory concentration (IC50) at human orexin-2 receptor (setting [1]) stood at 15 nM; on human orexin-1 receptor it was 603 nM.

On to `CCOc1cc(F)ccc1[C@@H]1C[C@H](Cl)C(=O)N1Cc1ccc(OC(F)(F)F)cc1` (racemic) [Example 345], for which the IC50 on human orexin-2 receptor was found to be 462 nM; on human orexin-1 receptor, 745 nM.

Turning to `COc1cccc(OC)c1[C@@H]1C[C@@H](O)C(=O)N1Cc1ccc2oc3ccccc3c2c1` (racemic) [Example 357, rac-(3R*,5S*)-1-(dibenzo[b,d]furan-2-ylmethyl)-5-(2,6-dimethoxyphenyl)-3-hydroxypyrrolidin-2-one], the IC50 at human orexin-2 receptor (setting [1]) turned out to be 4 nM; at human orexin-1 receptor, 20 nM.

`COc1cccc(OC)c1[C@@H]1C[C@H](Cl)C(=O)N1Cc1ccc2oc3ccccc3c2c1` (racemic) [Example 369, rac-(3S*,5S*)-3-chloro-1-(dibenzo[b,d]furan-2-ylmethyl)-5-(2,6-dimethoxyphenyl)pyrrolidin-2-one]: the half-inhibitory concentration (IC50) on human orexin-2 receptor (setting [1]) was 5 nM; at human orexin-1 receptor it was 2 nM.

In the case of `CCOc1cccc(F)c1[C@@H]1C[C@@H](O)C(=O)N1Cc1ccc(OC(F)(F)F)c(F)c1` (racemic) [Example 428, rac-(3R*,5S*)-5-(2-ethoxy-6-fluorophenyl)-1-(3-fluoro-4-(trifluoromethoxy)benzyl)-3-hydroxypyrrolidin-2-one], the figures for the IC50 on human orexin-2 receptor (setting [1]) and on human orexin-1 receptor were 53 nM and 1710 nM, respectively.

Take `CCOc1cc(F)cc(F)c1[C@@H]1C[C@@H](O)C(=O)N1Cc1ccc(OC(F)(F)F)cc1` (racemic) [Example 431, rac-(3R*,5S*)-5-(2-ethoxy-4,6-difluorophenyl)-3-hydroxy-1-(4-(trifluoromethoxy)benzyl)pyrrolidin-2-one]: the IC50 at human orexin-2 receptor (setting [1]) worked out at 255 nM; at human orexin-1 receptor, 1490 nM.

With `O=C1[C@H](O)C[C@@H](c2c(F)cccc2OCCF)N1Cc1ccc(OC(F)(F)F)cc1` (racemic) [Example 432, rac-(3R*,5S*)-5-(2-fluoro-6-(2-fluoroethoxy)phenyl)-3-hydroxy-1-(4-(trifluoromethoxy)benzyl)pyrrolidin-2-one], the IC50 on human orexin-2 receptor (setting [1]) worked out at 57 nM; at human orexin-1 receptor, 3960 nM.

Consider `CCOc1cccc(F)c1[C@@H]1C[C@@H](O)C(=O)N1Cc1ccccc1OC(F)(F)F` (racemic) [Example 433, rac-(3R*,5S*)-5-(2-ethoxy-6-fluorophenyl)-3-hydroxy-1-(2-(trifluoromethoxy)benzyl)pyrrolidin-2-one], for which the IC50 on human orexin-2 receptor (setting [1]) is 3920 nM; at human orexin-1 receptor, 1710 nM.

As to `CCOc1cccc(F)c1[C@@H]1C[C@H](F)C(=O)N1Cc1ccc(OC(F)(F)F)c(F)c1` (racemic) [Example 434, rac-(3S*,5S*)-5-(2-ethoxy-6-fluorophenyl)-3-fluoro-1-(3-fluoro-4-(trifluoromethoxy)benzyl)pyrrolidin-2-one], the IC50 was determined as 21 nM on human orexin-2 receptor (setting [1]) and 655 nM at human orexin-1 receptor.

As to `CCOc1cccc(F)c1[C@@H]1C[C@H](Cl)C(=O)N1Cc1ccc(OC(F)(F)F)c(F)c1` (racemic) [Example 435, rac-(3S*,5S*)-3-chloro-5-(2-ethoxy-6-fluorophenyl)-1-(3-fluoro-4-(trifluoromethoxy)benzyl)pyrrolidin-2-one], the IC50 on human orexin-2 receptor (setting [1]) is 30 nM; on human orexin-1 receptor it was 660 nM.

As for `CCOc1cccc(Cl)c1[C@@H]1C[C@H](F)C(=O)N1Cc1ccc(OC(F)(F)F)cc1` (racemic) [Example 436, rac-(3S*,5S*)-5-(2-chloro-6-ethoxyphenyl)-3-fuoro-1-(4-(trifluoromethoxy)benzyl)pyrrolidin-2-one], the IC50 at human orexin-2 receptor (setting [1]) stood at 31 nM; on human orexin-1 receptor, 965 nM.
